Results from ChEMBL document CHEMBL4364276, “Discovery of 4-phenyl-2H-benzo[b][1,4]oxazin-3(4H)-one derivatives as potent and orally active PI3K/mTOR dual inhibitors” (Eur J Med Chem, 2019).

How the values were obtained:
[1] = target: Activated CDC42 kinase 1 (Homo sapiens) (UniProt Q07912); assay: Inhibition of human ACK1 at 100 nM using EAIYAAPFAKKK as substrate by [gamma-33P]-ATP assay
[2] = target: Tyrosine-protein kinase Blk (Homo sapiens) (UniProt P51451); assay: Inhibition of human BLK at 100 nM using poly[Glu:Tyr](4:1) as substrate by [gamma-33P]-ATP assay
[3] = target: Serine/threonine-protein kinase BRSK1 (Homo sapiens) (UniProt Q8TDC3); assay: Inhibition of human BRSK1 at 100 nM using KKKVSRSGLYRSPSMPENLNRPR as substrate by [gamma-33P]-ATP assay
[4] = target: Tyrosine-protein kinase Mer (Homo sapiens) (UniProt Q12866); assay: Inhibition of human c-MER at 100 nM using poly[Glu:Tyr] (4:1) as substrate by [gamma-33P]-ATP assay
[5] = target: Cyclin-dependent kinase 2/cyclin E1 (Homo sapiens) (UniProt P24864+P24941); assay: Inhibition of human CDK2/cyclin-E at 100 nM using histone H1 as substrate by [gamma-33P]-ATP assay; format: protein-complex assay
[6] = target: Mitogen-activated protein kinase kinase kinase 8 (Homo sapiens) (UniProt P41279); assay: Inhibition of human COT1 at 100 nM using MEK1 as substrate by [gamma-33P]-ATP assay
[7] = target: Megakaryocyte-associated tyrosine-protein kinase (Homo sapiens) (UniProt P42679); assay: Inhibition of human CTK at 100 nM using poly[Glu:Tyr] (4:1) as substrate by [gamma-33P]-ATP assay
[8] = target: Serine/threonine-protein kinase DCLK2 (Homo sapiens) (UniProt Q8N568); assay: Inhibition of human DCAMKL2 at 100 nM using KKLNRTLSFAEPG as substrate by [gamma-33P]-ATP assay
[9] = target: Vascular endothelial growth factor receptor 3 (Homo sapiens) (UniProt P35916); assay: Inhibition of human FLT4 at 100 nM using poly[Glu:Tyr] (4:1) as substrate by [gamma-33P]-ATP assay
[10] = target: Tyrosine-protein kinase HCK (Homo sapiens) (UniProt P08631); assay: Inhibition of human HCK at 100 nM using KVEKIGEGTYGVVYK as substrate by [gamma-33P]-ATP assay
[11] = target: Tyrosine-protein kinase JAK1 (Homo sapiens) (UniProt P23458); assay: Inhibition of human JAK1 at 100 nM using poly[Glu:Tyr] (4:1) as substrate by [gamma-33P]-ATP assay
[12] = target: Tyrosine-protein kinase JAK3 (Homo sapiens) (UniProt P52333); assay: Inhibition of human JAK3 at 100 nM using poly[Glu:Tyr] (4:1) as substrate by [gamma-33P]-ATP assay
[13] = target: Serine/threonine-protein kinase MAK (Homo sapiens) (UniProt P20794); assay: Inhibition of human MAK at 100 nM using MBP as substrate by [gamma-33P]-ATP assay
[14] = target: Serine/threonine-protein kinase greatwall (Homo sapiens) (UniProt Q96GX5); assay: Inhibition of human MASTL at 100 nM using ERK2 as substrate by [gamma-33P]-ATP assay
[15] = target: Dual specificity mitogen-activated protein kinase kinase 2 (Homo sapiens) (UniProt P36507); assay: Inhibition of human MEK2 at 100 nM using ERK2 as substrate by [gamma-33P]-ATP assay
[16] = target: Myosin light chain kinase, smooth muscle (Homo sapiens) (UniProt Q15746); assay: Inhibition of human MLCK at 100 nM using KKLNRTLSFAEPG as substrate by [gamma-33P]-ATP assay
[17] = target: Muscle, skeletal receptor tyrosine-protein kinase (Homo sapiens) (UniProt O15146); assay: Inhibition of human MUSK at 100 nM using MBP as substrate by [gamma-33P]-ATP assay
[18] = target: Serine/threonine-protein kinase Nek3 (Homo sapiens) (UniProt P51956); assay: Inhibition of human NEK3 at 100 nM using MBP as substrate by [gamma-33P]-ATP assay
[19] = target: Serine/threonine-protein kinase Nek5 (Homo sapiens) (UniProt Q6P3R8); assay: Inhibition of human NEK5 at 100 nM using MBP as substrate by [gamma-33P]-ATP assay
[20] = target: Protein kinase C theta type (Homo sapiens) (UniProt Q04759); assay: Inhibition of human PKCtheta at 100 nM using Histone H1 as substrate by [gamma-33P]-ATP assay
[21] = target: Serine/threonine-protein kinase PLK4 (Homo sapiens) (UniProt O00444); assay: Inhibition of human PLK4 at 100 nM using casein as substrate by [gamma-33P]-ATP assay
[22] = target: Dual serine/threonine and tyrosine protein kinase (Homo sapiens) (UniProt Q6XUX3); assay: Inhibition of human RIPK5 at 100 nM using MBP as substrate by [gamma-33P]-ATP assay
[23] = target: Serine/threonine-protein kinase SIK1 (Homo sapiens) (UniProt P57059); assay: Inhibition of human SIK1 at 100 nM using AMARAASAAALARRR as substrate by [gamma-33P]-ATP assay
[24] = target: Serine/threonine-protein kinase 32B (Homo sapiens) (UniProt Q9NY57); assay: Inhibition of human STK32B at 100 nM using MBP as substrate by [gamma-33P]-ATP assay
[25] = target: Tau-tubulin kinase 1 (Homo sapiens) (UniProt Q5TCY1); assay: Inhibition of human TTBK1 at 100 nM using MBP as substrate by [gamma-33P]-ATP assay
[26] = target: Non-receptor tyrosine-protein kinase TYK2 (Homo sapiens) (UniProt P29597); assay: Inhibition of human TYK2 at 100 nM using KKSRGDYMTMQIG as substrate by [gamma-33P]-ATP assay
[27] = target: Tyrosine-protein kinase receptor TYRO3 (Homo sapiens) (UniProt Q06418); assay: Inhibition of human TYRO3 at 100 nM using poly[Glu:Tyr] (4:1) as substrate by [gamma-33P]-ATP assay
[28] = species on record: Homo sapiens; assay: Inhibition of human AMPK (A2/B1/G1) at 100 nM using HMRSAMSGLHLVKRR as substrate by [gamma-33P]-ATP assay
[29] = target: Eukaryotic translation initiation factor 2-alpha kinase 3 (Homo sapiens) (UniProt Q9NZJ5); assay: Inhibition of human EIF2AK3 at 100 nM using MBP as substrate by [gamma-33P]-ATP assay
[30] = target: [Pyruvate dehydrogenase (acetyl-transferring)] kinase isozyme 1, mitochondrial (Homo sapiens) (UniProt Q15118); assay: Inhibition of human PDK1 at 100 nM using MBP as substrate by [gamma-33P]-ATP assay
[31] = target: Transient receptor potential cation channel subfamily M member 7 (Homo sapiens) (UniProt Q96QT4); assay: Inhibition of human TRPM7 at 100 nM using MBP as substrate by [gamma-33P]-ATP assay
Sequence of Transient receptor potential cation channel subfamily M member 7 (Homo sapiens) (Q96QT4 whole entry): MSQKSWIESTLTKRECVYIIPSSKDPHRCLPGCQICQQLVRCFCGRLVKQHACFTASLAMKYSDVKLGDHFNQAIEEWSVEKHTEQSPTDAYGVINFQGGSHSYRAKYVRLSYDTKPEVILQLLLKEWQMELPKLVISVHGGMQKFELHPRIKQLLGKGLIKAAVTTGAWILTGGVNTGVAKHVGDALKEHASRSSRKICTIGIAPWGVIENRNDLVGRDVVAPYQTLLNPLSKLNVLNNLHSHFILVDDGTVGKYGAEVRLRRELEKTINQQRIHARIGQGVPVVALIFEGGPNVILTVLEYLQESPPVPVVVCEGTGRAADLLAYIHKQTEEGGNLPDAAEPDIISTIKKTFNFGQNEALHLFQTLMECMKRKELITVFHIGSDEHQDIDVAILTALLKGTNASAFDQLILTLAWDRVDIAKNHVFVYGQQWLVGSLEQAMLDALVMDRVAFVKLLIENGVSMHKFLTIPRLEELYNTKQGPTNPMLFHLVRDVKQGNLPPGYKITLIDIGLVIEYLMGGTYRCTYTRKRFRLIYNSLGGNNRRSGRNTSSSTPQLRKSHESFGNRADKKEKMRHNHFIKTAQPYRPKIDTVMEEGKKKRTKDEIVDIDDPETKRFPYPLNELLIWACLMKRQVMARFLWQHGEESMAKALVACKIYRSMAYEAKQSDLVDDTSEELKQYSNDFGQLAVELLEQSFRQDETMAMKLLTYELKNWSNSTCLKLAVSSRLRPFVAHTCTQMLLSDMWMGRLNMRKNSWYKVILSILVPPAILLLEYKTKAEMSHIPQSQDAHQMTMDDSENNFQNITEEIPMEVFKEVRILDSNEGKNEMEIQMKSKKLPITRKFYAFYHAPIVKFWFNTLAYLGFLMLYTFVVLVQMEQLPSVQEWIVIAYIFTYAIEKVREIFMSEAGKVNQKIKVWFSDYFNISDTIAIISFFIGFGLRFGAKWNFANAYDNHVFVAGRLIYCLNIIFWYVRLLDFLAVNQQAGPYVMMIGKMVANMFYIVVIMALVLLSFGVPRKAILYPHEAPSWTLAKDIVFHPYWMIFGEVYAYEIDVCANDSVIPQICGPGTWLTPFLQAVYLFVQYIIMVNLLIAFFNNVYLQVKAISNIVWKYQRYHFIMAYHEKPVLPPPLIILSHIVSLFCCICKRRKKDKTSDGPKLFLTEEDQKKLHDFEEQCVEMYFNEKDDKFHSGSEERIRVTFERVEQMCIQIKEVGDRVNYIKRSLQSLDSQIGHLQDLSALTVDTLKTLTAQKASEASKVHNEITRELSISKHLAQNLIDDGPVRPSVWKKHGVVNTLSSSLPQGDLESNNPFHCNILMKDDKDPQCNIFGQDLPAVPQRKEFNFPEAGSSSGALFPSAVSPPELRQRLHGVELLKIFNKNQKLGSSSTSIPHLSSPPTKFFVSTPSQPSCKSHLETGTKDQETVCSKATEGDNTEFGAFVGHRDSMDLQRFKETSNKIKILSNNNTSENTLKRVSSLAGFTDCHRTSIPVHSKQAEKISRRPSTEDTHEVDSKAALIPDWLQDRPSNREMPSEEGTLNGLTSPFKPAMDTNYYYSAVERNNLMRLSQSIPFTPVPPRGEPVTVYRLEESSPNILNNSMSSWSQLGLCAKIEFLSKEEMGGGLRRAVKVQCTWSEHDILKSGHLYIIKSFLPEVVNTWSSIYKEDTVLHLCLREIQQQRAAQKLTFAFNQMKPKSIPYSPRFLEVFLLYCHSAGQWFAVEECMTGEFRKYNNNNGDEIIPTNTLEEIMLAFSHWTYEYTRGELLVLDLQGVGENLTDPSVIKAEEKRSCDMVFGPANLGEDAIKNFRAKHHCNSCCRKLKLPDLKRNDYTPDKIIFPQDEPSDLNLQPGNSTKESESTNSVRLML

Sequence of Activated CDC42 kinase 1 (Homo sapiens) (Q07912 whole entry, looked up): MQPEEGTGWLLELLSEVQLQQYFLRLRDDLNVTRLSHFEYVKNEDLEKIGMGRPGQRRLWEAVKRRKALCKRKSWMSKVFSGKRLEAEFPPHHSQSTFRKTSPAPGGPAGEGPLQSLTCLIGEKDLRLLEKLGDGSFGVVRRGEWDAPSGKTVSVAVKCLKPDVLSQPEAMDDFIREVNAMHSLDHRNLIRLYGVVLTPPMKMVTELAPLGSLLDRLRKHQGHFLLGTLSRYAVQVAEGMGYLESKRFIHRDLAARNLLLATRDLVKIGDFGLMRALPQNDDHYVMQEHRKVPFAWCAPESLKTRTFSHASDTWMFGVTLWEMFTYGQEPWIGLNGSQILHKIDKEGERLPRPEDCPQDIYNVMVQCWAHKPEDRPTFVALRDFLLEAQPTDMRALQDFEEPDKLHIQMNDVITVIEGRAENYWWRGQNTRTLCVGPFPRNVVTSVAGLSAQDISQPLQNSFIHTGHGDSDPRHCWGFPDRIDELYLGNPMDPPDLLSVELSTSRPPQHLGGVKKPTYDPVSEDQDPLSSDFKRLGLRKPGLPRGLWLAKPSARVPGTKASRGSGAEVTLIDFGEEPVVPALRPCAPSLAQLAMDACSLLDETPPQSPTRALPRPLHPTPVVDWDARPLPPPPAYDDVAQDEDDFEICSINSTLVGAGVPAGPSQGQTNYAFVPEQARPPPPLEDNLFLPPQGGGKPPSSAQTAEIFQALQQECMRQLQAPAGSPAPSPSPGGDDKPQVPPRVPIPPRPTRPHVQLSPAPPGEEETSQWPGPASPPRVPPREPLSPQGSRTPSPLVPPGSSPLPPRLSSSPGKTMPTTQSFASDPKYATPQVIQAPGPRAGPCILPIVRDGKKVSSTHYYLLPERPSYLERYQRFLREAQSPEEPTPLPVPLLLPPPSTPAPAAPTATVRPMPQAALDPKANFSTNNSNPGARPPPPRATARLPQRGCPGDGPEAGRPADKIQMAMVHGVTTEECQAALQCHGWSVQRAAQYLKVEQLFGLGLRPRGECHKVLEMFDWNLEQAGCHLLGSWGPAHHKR
Sequence of Serine/threonine-protein kinase greatwall (Homo sapiens) (Q96GX5 whole entry): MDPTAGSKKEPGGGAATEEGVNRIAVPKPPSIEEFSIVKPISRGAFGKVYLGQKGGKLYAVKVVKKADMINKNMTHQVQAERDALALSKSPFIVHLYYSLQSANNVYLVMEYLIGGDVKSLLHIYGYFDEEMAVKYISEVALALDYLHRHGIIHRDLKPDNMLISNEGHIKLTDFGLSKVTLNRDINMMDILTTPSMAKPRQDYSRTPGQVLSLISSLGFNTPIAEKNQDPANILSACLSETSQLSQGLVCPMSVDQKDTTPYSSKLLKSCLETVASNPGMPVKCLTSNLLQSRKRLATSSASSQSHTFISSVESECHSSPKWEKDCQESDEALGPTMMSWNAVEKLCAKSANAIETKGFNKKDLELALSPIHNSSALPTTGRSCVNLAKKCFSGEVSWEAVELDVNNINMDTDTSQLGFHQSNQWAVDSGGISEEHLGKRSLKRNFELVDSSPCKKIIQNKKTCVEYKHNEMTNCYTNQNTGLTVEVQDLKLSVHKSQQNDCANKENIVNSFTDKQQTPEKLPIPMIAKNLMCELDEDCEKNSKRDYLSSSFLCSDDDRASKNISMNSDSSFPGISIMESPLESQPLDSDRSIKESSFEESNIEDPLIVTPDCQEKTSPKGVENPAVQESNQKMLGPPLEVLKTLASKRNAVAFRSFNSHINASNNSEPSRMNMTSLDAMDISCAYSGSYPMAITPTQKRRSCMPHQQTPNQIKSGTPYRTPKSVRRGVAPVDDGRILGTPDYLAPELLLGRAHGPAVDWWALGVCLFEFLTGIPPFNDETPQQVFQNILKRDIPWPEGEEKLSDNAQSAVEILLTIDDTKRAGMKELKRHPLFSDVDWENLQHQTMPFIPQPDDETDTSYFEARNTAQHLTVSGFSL
Sequence of Dual specificity mitogen-activated protein kinase kinase 2 (Homo sapiens) (P36507 whole entry): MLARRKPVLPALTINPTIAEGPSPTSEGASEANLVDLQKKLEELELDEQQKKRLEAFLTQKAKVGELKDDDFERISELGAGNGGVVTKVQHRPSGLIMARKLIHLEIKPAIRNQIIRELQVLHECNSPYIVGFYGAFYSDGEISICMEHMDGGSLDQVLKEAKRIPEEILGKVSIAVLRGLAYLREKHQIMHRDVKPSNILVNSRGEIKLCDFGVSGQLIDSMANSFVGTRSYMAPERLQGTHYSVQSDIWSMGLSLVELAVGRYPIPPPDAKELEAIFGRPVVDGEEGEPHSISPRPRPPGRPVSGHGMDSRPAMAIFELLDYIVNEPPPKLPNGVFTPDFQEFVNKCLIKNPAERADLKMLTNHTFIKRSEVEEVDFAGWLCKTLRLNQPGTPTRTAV
Sequence of Protein kinase C theta type (Homo sapiens) (Q04759 whole entry, looked up): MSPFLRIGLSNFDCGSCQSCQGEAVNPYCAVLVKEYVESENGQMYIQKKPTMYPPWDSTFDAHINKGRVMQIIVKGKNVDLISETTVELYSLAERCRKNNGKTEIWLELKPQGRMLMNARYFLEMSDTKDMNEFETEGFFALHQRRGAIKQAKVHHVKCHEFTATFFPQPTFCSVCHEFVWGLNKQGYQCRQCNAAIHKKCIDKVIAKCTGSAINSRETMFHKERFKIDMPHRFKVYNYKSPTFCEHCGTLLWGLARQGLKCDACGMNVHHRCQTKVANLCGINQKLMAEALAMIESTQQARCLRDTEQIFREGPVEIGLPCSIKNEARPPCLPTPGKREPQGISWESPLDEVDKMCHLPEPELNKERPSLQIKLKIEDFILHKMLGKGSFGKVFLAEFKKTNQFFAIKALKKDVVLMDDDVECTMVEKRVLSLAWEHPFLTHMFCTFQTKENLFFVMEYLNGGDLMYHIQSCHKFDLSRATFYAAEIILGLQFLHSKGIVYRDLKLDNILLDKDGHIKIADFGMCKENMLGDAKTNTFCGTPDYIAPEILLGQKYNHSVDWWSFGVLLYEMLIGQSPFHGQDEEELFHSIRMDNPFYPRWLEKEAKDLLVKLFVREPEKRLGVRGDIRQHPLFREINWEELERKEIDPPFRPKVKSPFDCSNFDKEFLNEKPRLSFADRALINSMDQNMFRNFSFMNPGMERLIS

For COc1ccc(N2C(=O)COc3ccc(-c4cnc(OC)c(NS(=O)(=O)c5ccc(F)cc5)c4)cc32)cc1, the inhibition [1] was 10.4%, the inhibition [2] was 27.5% and the inhibition [3] was 12.8%. The inhibition [4] was 5.47%, the inhibition [5] was 11.2% and the inhibition [6] was 13%. It also gave an inhibition [7] of -7.54%, an inhibition [8] of 2.1% and an inhibition [9] of -7.65%. The inhibition [10] was 7.23%, the inhibition [11] was 26.8% and the inhibition [12] was -4.79%. For the same molecule, the inhibition [13] was 16.2%, the inhibition [14] was -1.96% and the inhibition [15] was 1.12%. For the same molecule, the inhibition [16] was 7.23%, the inhibition [17] was -3.79% and the inhibition [18] was 10.8%. For the same molecule, the inhibition [19] was 1.15%, the inhibition [20] was 0.73% and the inhibition [21] was -1.06%. The inhibition [22] was 9.57%, the inhibition [23] was 5.31% and the inhibition [24] was -3.89%. It also gave an inhibition [25] of -1.55%, an inhibition [26] of 11.3% and an inhibition [27] of 3.03%. The inhibition [28] was -3.88%, the inhibition [29] was 23.3% and the inhibition [30] was 25.8%. For the same molecule, the inhibition [31] was 1.61%.
